This is an account of results in patent US20210038607A1, “OXADIAZOLYLTHIOPHENE DERIVATIVES USEFUL AS HISTONE DEACETYLASE INHIBITORS” (Karus Therapeutics Limited, priority 2018, published 2021).

The structures appear in SMILES notation.

The subject of assay [1] is acetylated histone H3 in A549 lung adenocarcinoma cells. Nature of the assay: Acetylated histone H3 in-cell western (ICW) assay. The class given is cell-based. As to conditions: Homo sapiens, 16 h exposure, relative to 40 μM Trichostatin A positive control, read-out: EC50 Ac-histone H3, A549 cells. How it is done:
(§1) Acetylated α-Tubulin and Histone H3 in-Cell Western (ICW) Assays
(§2) A549 cells were maintained in DMEM (Life Technologies)+10% FBS+2 mM glutamine & penicillin (10 μg/mL) and streptomycin ([…]. 10,000 A549 cells per well were plated into 96 well tissue culture plates (Corning) and incubated at 37° C. overnight in a humidified atmosphere containing 5% CO2 prior to addition of compounds. Compounds (dissolved in 100% DMSO) were diluted into cell culture media at 2× final assay concentration. 2× compound or DMSO (negative control) were added to cells (final DMSO concentration 0.4%). Untreated control wells received media. For acetylated α-tubulin assays, 40 μM scriptaid was used as a positive control. For acetylated histone H3 assays, 40 μM Trichostatin A (TSA) was used as a positive control. Cells were exposed to compound at 37° C. in a humidified atmosphere containing 5% CO2 for 16 h.
(§3) Measurement of the impact of compounds on levels of acetylated α-tubulin and histone H3 was performed using specific antibodies and near-infrared immunofluorescent dyes. Briefly, media was removed from wells of assay plates. Cells were washed once with PBS and fixed in 3.7% formaldehyde PBS solution at room temperature for 20 min. Cells were then permeabilised by washing 5 times in 0.1% triton-X-100 PBS at room temperature with gentle agitation for 5 min per wash. Non-specific antibody staining was blocked by the addition of Odyssey blocking buffer (Li-Cor) for 1.5 h at room temperature with gentle agitation. Cells were then incubated with primary antibody (mouse monoclonal anti-acetylated α-tubulin (clone 6-11B-1), Sigma or rabbit polyclonal anti-acetylated histone H3, Millipore) diluted in Odyssey blocking buffer at 4° C. with gentle shaking overnight (no antibody control and secondary antibody only wells were incubated with Odyssey blocking buffer only). Cells were washed five times with 0.1% tween PBS and labelled with secondary antibody (IR dye 800CW-conjugated goat anti mouse IgG or -goat anti rabbit IgG, Li-Cor) and cell stains Sapphire700 (Li-Cor) and Draq5 (Biostatus) diluted in Odyssey blocking buffer at room temperature in the dark with gentle shaking for 1 h (no antibody control wells were incubated with Odyssey blocking buffer only and secondary antibody only with diluted secondary antibody but no cell stains). Cells were washed with 0.1% Tween PBS five times and scanned using a Li-Cor Odyssey SA plate reader in 700 and 800 nm channels. Acetylated α-tubulin or histone H3 signal was normalised to cell number using the cell stain signal. Percentage increase in acetylated α-tubulin or histone H3 after compound treatment over the mean of DMSO treated controls, relative to scriptaid and TSA positive controls, respectively was calculated. EC50 values were calculated using GraphPad Prism software and nonlinear regression with 0% bottom and 100% top constraints.

Assay [2] has as its system acetylated α-tubulin in A549 lung adenocarcinoma cells. Briefly: Acetylated α-tubulin in-cell western (ICW) assay. As to conditions: Homo sapiens, 16 h exposure, relative to 40 μM scriptaid positive control, read-out: EC50 Ac-α-tubulin, A549 cells. In kind it is cell-based. The protocol: as §1, §2, §3
Assay [3] concerns the target T1, Human HDAC10 (Homo sapiens, UniProt Q969S8).
T1 construct: Human HDAC10 (a.a. 1-481); GST (N); His (C); host or cells: baculovirus expression system
T1 sequence (Q969S8 1-481): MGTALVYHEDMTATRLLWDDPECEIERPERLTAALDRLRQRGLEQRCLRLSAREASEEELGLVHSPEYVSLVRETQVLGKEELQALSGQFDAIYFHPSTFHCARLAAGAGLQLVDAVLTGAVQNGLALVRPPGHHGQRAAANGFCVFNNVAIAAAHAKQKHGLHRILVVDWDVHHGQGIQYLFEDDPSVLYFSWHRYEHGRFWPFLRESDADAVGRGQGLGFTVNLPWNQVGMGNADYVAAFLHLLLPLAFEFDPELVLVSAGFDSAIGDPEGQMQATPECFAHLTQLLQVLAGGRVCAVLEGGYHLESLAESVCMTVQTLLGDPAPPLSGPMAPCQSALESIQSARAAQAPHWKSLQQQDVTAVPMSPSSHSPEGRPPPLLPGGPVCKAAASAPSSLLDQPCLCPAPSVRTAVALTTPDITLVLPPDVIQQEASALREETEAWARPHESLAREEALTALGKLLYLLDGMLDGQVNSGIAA
Nature of the assay: HDAC10 biochemical assay, AMC-labeled peptide substrate. As to conditions: read-out: HDAC Isoform IC50 (nM) 10. Summed up:
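Two-step fluorogenic read-out (Ex/Em 360/460) after developer digestion of deacetylated RHKK(Ac)AMC (50 μM). Deacetylation ran 2 h at 30 °C with 12 ng/ul HDAC10 (aa 1-481, GST/His tags, baculovirus) in Tris-HCl pH 8.0, BSA, 1% DMSO.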

Assay [4] concerns the target T2, Human HDAC2 (Homo sapiens, UniProt Q92769).
T2 construct: full length with C-terminal GST-tag; GST (C); host or cells: baculovirus expression system
Nature of the assay: HDAC2 biochemical assay, AMC-labeled peptide substrate. As to conditions: read-out: HDAC Isoform IC50 (nM) 2. Summed up:
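Full-length human HDAC2 with C-terminal GST tag, baculovirus-expressed, at 0.07 ng/ul with 50 μM RHKK(Ac)AMC substrate in Tris-HCl pH8.0 buffer with BSA, 1% DMSO final. Incubated 1 hour at 30° C with compounds, then developer added; fluorescence read at 360/460 Ex/Em.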

T2 sequence (Q92769 whole entry): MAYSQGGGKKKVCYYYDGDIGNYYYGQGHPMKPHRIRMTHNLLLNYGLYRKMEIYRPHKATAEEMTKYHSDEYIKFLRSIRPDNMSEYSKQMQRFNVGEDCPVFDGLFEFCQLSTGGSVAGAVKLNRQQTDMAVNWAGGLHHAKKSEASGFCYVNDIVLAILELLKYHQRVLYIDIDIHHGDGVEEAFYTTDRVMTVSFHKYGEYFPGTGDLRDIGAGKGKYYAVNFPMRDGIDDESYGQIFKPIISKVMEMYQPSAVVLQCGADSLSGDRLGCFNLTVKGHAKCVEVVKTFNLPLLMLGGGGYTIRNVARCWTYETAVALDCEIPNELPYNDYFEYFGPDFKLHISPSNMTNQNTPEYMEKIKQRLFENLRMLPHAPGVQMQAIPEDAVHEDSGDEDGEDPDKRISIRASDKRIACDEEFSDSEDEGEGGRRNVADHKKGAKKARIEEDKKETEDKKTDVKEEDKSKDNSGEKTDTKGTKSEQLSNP

As a reminder, the EC50 is the concentration giving half of the maximal effect. The term IC50 denotes the midpoint of a concentration-inhibition curve. Consider `O=C(c1ccc(N(Cc2ccc(-c3noc(C(F)(F)F)n3)s2)c2cnccn2)nn1)N1C[C@@H]2C[C@H]1CO2` [Example FE, 6-[(1S,4S)-2-Oxa-5-azabicyclo[2.2.1]heptane-5-carbonyl]-N-(pyrazin-2-yl)-N-({5-[5-(trifluoromethyl)-1,2,4-oxadiazol-3-yl]thiophen-2-yl}methyl)pyridazin-3-amine], for which the EC50 is ≥ 10 µM in assay [1] and 1 to 10 µM in assay [2]. Besides, the IC50 in assay [3] and in assay [4] was > 10000 nM each time.
Turning to `O=C(c1ccc(N(Cc2ccc(-c3noc(C(F)(F)F)n3)s2)c2cnccn2)nn1)N1CCC1` [Example FF, 6-(Azetidine-1-carbonyl)-N-(pyrazin-2-yl)-N-({5-[5-(trifluoromethyl)-1,2,4-oxadiazol-3-yl]thiophen-2-yl}methyl)pyridazin-3-amine], the concentration giving a half-maximal response (EC50) in assay [1] was ≥ 10 µM; in assay [2], ≤ 1 µM. The IC50 in assay [3] and in assay [4] was > 10000 nM each time.
As for `O=C(c1ccc(N(Cc2ccc(-c3noc(C(F)(F)F)n3)s2)c2cnccn2)nn1)N1CCCCC1` [Example FG, 6-(Piperidine-1-carbonyl)-N-(pyrazin-2-yl)-N-({5-[5-(trifluoromethyl)-1,2,4-oxadiazol-3-yl]thiophen-2-yl}methyl)pyridazin-3-amine], the EC50 in assay [1] was ≥ 10 µM; in assay [2] it was ≤ 1 µM. Moreover, the IC50 in assay [3] and in assay [4] was > 10000 nM throughout.
`O=C(c1ccc(N(Cc2ccc(-c3noc(C(F)(F)F)n3)s2)c2cnccn2)nn1)N1CCC12COC2` [Example FH, 6-{6-Oxa-1-azaspiro[3.3]heptane-1-carbonyl}-N-(pyrazin-2-yl)-N-({5-[5-(trifluoromethyl)-1,2,4-oxadiazol-3-yl]thiophen-2-yl}methyl)pyridazin-3-amine]: the EC50 in assay [1] is ≥ 10 µM; in assay [2], ≤ 1 µM. The half-inhibitory concentration (IC50) in assay [3] and in assay [4] was > 10000 nM each time.
As to `O=C(c1ccc(N(Cc2ccc(-c3noc(C(F)(F)F)n3)s2)c2cnccn2)nn1)N1CCCC1` [Example FI, N-(Pyrazin-2-yl)-6-(pyrrolidine-1-carbonyl)-N-({5-[5-(trifluoromethyl)-1,2,4-oxadiazol-3-yl]thiophen-2-yl}methyl)pyridazin-3-amine], the values for the EC50 in assay [1] and in assay [2] were ≥ 10 µM and ≤ 1 µM, respectively. Besides, the concentration for half-maximal inhibition (IC50) in assay [3] and in assay [4] was > 10000 nM each time.
Turning to `O=C(c1ccc(N(Cc2ccc(-c3noc(C(F)(F)F)n3)s2)c2cnccn2)nn1)N1CCC2(COC2)C1` [Example FJ, 6-{2-Oxa-6-azaspiro[3.4]octane-6-carbonyl}-N-(pyrazin-2-yl)-N-({5-[5-(trifluoromethyl)-1,2,4-oxadiazol-3-yl]thiophen-2-yl}methyl)pyridazin-3-amine], the EC50 was ≥ 10 µM in assay [1] and ≤ 1 µM in assay [2]. Further, the IC50 in assay [3] and in assay [4] was > 10000 nM throughout.
As for `O=C(c1ccc(N(Cc2ccc(-c3noc(C(F)(F)F)n3)s2)c2cnccn2)nn1)N1CC(O)(C(F)(F)F)C1` [Example FK, 1-{6-[(Pyrazin-2-yl)({5-[5-(trifluoromethyl)-1,2,4-oxadiazol-3-yl]thiophen-2-yl}methyl)amino]pyridazine-3-carbonyl}-3-(trifluoromethyl)azetidin-3-ol], the EC50 is ≥ 10 µM in assay [1] and ≤ 1 µM in assay [2]. Also, the 50% inhibitory concentration (IC50) in assay [3] and in assay [4] was > 10000 nM in each case.
For the compound `FC(F)(F)c1nc(-c2ccc(CN(c3cnccn3)c3ccc(CN4CCOCC4)nn3)s2)no1` [Example FN, 6-[(Morpholin-4-yl)methyl]-N-(pyrazin-2-yl)-N-({5-[5-(trifluoromethyl)-1,2,4-oxadiazol-3-yl]thiophen-2-yl}methyl)pyridazin-3-amine], the EC50 in assay [1] was ≥ 10 µM; in assay [2] it was ≤ 1 µM. The IC50 in assay [3] and in assay [4] was > 10000 nM throughout.
Take `[O-][S+]1CCN(Cc2ccc(N(Cc3ccc(-c4noc(C(F)(F)F)n4)s3)c3cnccn3)nn2)CC1` [Example FO, 4-({6-[(Pyrazin-2-yl)({5-[5-(trifluoromethyl)-1,2,4-oxadiazol-3-yl]thiophen-2-yl}methyl)amino]pyridazin-3-yl}methyl)-1lambda4-thiomorpholin-1-one]: the EC50 in assay [1] was ≥ 10 µM; in assay [2], ≤ 1 µM. In addition, the IC50 in assay [3] and in assay [4] was > 10000 nM each time.
Turning to `O=C(c1cnnc(N(Cc2ccc(-c3noc(C(F)(F)F)n3)s2)c2cnccn2)c1)N1CCC1` [Example FS, 5-(Azetidine-1-carbonyl)-N-(pyrazin-2-yl)-N-({5-[5-(trifluoromethyl)-1,2,4-oxadiazol-3-yl]thiophen-2-yl}methyl)pyridazin-3-amine], the values for the EC50 in assay [1] and in assay [2] were ≥ 10 µM and ≤ 1 µM, respectively. For the same compound, the IC50 in assay [3] and in assay [4] was > 10000 nM in each case.
Regarding `O=C(c1cnnc(N(Cc2ccc(-c3noc(C(F)(F)F)n3)s2)c2cnccn2)c1)N1CC[S+]([O-])CC1` [Example FU, 4-{6-[(Pyrazin-2-yl)({5-[5-(trifluoromethyl)-1,2,4-oxadiazol-3-yl]thiophen-2-yl}methyl)amino]pyridazine-4-carbonyl}-1lambda4-thiomorpholin-1-one], the EC50 in assay [1] was ≥ 10 µM; in assay [2] it was ≤ 1 µM. Also, the IC50 in assay [3] and in assay [4] was > 10000 nM each time.
For the compound `O=C(c1cnnc(N(Cc2ccc(-c3noc(C(F)(F)F)n3)s2)c2cnccn2)c1)N1C[C@@H]2C[C@H]1CO2` [Example FV, 5-[(1S,4S)-2-Oxa-5-azabicyclo[2.2.1]heptane-5-carbonyl]-N-(pyrazin-2-yl)-N-({5-[5-(trifluoromethyl)-1,2,4-oxadiazol-3-yl]thiophen-2-yl}methyl)pyridazin-3-amine], the EC50 in assay [1] is ≥ 10 µM; in assay [2], ≤ 1 µM. For the same compound, the IC50 in assay [3] and in assay [4] was > 10000 nM in each case.
For `O=C(c1cnnc(N(Cc2ccc(-c3noc(C(F)(F)F)n3)s2)c2cnccn2)c1)N1C[C@H]2C[C@@H]1CO2` [Example FW, 5-[(1R,4R)-2-Oxa-5-azabicyclo[2.2.1]heptane-5-carbonyl]-N-(pyrazin-2-yl)-N-({5-[5-(trifluoromethyl)-1,2,4-oxadiazol-3-yl]thiophen-2-yl}methyl)pyridazin-3-amine], the EC50 in assay [1] was ≥ 10 µM; in assay [2], ≤ 1 µM. For the same compound, the IC50 in assay [3] and in assay [4] was > 10000 nM each time.
